Experiment: Antioxidant activity assessed as second order rate constant for galvinoxyl radical scavenging activity by UV-vis spectrophotometry
Type: functional

SMILES	K
Oc1cc(O)c2c(c1)O[C@H](c1ccc(O)c(O)c1)[C@@H](O)[C@@H]2c1c(O)cc(O)c2c1O[C@H](c1ccc(O)c(O)c1)[C@@H](O)C2	1 ×10² /M/s
Oc1cc(O)c2c(c1)O[C@H](c1ccc(O)c(O)c1)[C@@H](O)C2	26 M⁻¹ s⁻¹
CC1(C)O[C@H]2Cc3c(O)cc(O)c([C@@H]4c5c(O)cc(O)cc5O[C@H](c5ccc(O)c(O)c5)[C@H]4O)c3O[C@@H]2c2cc(O)c(O)cc21	1.89 ×10² /M/s

Source: ChEMBL document CHEMBL3994620, “Synthesis and antioxidant activity of a procyanidin B3 analogue” (Bioorg Med Chem Lett, 2017)
